Experimental data as given in patent publication US9695155B2, “Herbicidal substituted pyrimidinyloxy benzene compounds” (E. I. DU PONT DE NEMOURS AND COMPANY, priority 2013, dated 2017).

How the values were obtained:
[1] = system: wild poinsettia; assay: Test E preemergence; format: in vivo, Euphorbia heterophylla; conditions: for Poinsettia, Wild plant response rating: scale 0 to 100 (0 no effect, 100 complete control)
Method in brief: (§1)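 Test chemicals formulated in a non-phytotoxic solvent mixture containing a surfactant were applied preemergence to seeds in silt loam soil or postemergence to plants at the 1- to 4-leaf stage in potting mix. After 14 to 21 days in a greenhouse, injury was visually rated against controls on a 0-100 scale (0 = no effect, 100 = complete control).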

[2] = system: field bindweed; assay: Test E preemergence; format: in vivo, Convolvulus arvensis; conditions: for Field Bindweed plant response rating: scale 0 to 100 (0 no effect, 100 complete control)
Method in brief: as §1

[3] = system: rice; assay: Test C flooded paddy test; format: in vivo, Oryza sativa; conditions: Flood, scale 0 to 100 (0 no effect, 100 complete control), 13 to 15 days
Method in brief: (§2)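 In-water treatment: compound dosed into 3 cm flood over soil, water level unchanged throughout. Controls run alongside; visual assessment at day 13–15.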

[4] = system: sedge, umbrella; assay: Test C flooded paddy test; format: in vivo, Cyperus difformis; conditions: Flood, scale 0 to 100 (0 no effect, 100 complete control), 13 to 15 days
Method in brief: as §2

[5] = system: morningglory; assay: Test E preemergence; format: in vivo, Ipomoea coccinea; conditions: for Morningglory plant response rating: scale 0 to 100 (0 no effect, 100 complete control)
Method in brief: as §1

[6] = system: palmer pigweed; assay: Test E preemergence; format: in vivo, Amaranthus palmeri; conditions: for Pigweed, Palmer plant response rating: scale 0 to 100 (0 no effect, 100 complete control)
Description: (§3) Seeds of plant species selected from corn (Zea mays), soybean (Glycine max), velvetleaf (Abutilon theophrasti), lambsquarters (Chenopodium album), wild poinsettia (Euphorbia heterophylla), palmer pigweed (Amaranthus palmeri), waterhemp (common waterhemp, Amaranthus rudis), surinam grass (Brachiaria decumbens), large (Lg) crabgrass (Digitaria sanguinalis), Brazilian crabgrass (Digitaria horizontalis), fall panicum (Panicum dichotomiflorum), giant foxtail (Setaria faberii), green foxtail (Setaria viridis), goosegrass (Eleusine indica), johnsongrass (Sorghum halepense), ragweed (common ragweed, Ambrosia elatior), barnyardgrass (Echinochloa crus-galli), sandbur (southern sandbur, Cenchrus echinatus), arrowleaf sida (Sida rhombifolia), Italian ryegrass (Lolium multiflorum), dayflower (Virginia (VA) dayflower, Commelina virginica), field bindweed (Convolvulus arvensis), morningglory (Ipomoea coccinea), nightshade (eastern black nightshade, Solanum ptycanthum), kochia (Kochia scoparia), yellow nutsedge (Cyperus esculentus), cocklebur (common cocklebur, Xanthium strumarium), smartweed (ladysthumb smartweed, and hairy beggarticks (Bidens pilosa), were planted into a silt loam soil and treated preemergence with test chemicals formulated in a non-phytotoxic solvent mixture which included a surfactant.
(§4) At the same time, plants from these crop and weed species and also horseweed (Canada horseweed, Conyza canadensis), waterhemp_RES1, (ALS & Triazine resistant common waterhemp, Amaranthus rudis), and waterhemp_RES2, (ALS & HPPD resistant common waterhemp, Amaranthus rudis) were planted in pots containing Redi-Earth® planting medium (Scotts Company, 14111 Scottslawn Road, Marysville, Ohio 43041) comprising spaghnum peat moss, vermiculite, wetting agent and starter nutrients were treated with postemergence applications of test chemicals formulated in the same manner. Plants ranged in height from 2 to 18 cm for postemergence treatments (1- to 4-leaf stage). Treated plants and controls were maintained in a greenhouse for 14 to 21 days, after which time all species were compared to controls and visually evaluated. Plant response ratings, summarized in Table E, are based on a scale of 0 to 100 where 0 is no effect and 100 is complete control. A dash (-) response means no test result.

[7] = system: arrowleaf sida; assay: Test E preemergence; format: in vivo, Sida rhombifolia; conditions: preemergence; for Arrowleaf Sida plant response rating: scale 0 to 100 (0 no effect, 100 complete control)
Method in brief: as §1

[8] = system: hairy beggarticks; assay: Test E preemergence; format: in vivo, Bidens pilosa; conditions: preemergence; for Beggarticks plant response rating: scale 0 to 100 (0 no effect, 100 complete control)
Description: as §3, §4

[9] = system: Brazilian crabgrass; assay: Test E preemergence; format: in vivo, Digitaria horizontalis; conditions: for Crabgrass, Brazil plant response rating: scale 0 to 100 (0 no effect, 100 complete control)
Method in brief: as §1

[10] = system: yellow nutsedge; assay: Test E preemergence; format: in vivo, Cyperus esculentus; conditions: for Nutsedge, Yellow plant response rating: scale 0 to 100 (0 no effect, 100 complete control)
Description: as §3, §4

[11] = system: corn; assay: Test E preemergence; format: in vivo, Zea mays; conditions: for Corn plant response rating: scale 0 to 100 (0 no effect, 100 complete control)
Method in brief: as §1

[12] = system: lambsquarters; assay: Test E preemergence; format: in vivo, Chenopodium album; conditions: for Lambsquarters plant response rating: scale 0 to 100 (0 no effect, 100 complete control)
Description: as §3, §4

[13] = system: dayflower; assay: Test E preemergence; format: in vivo, Commelina virginica; conditions: for Dayflower, VA plant response rating: scale 0 to 100 (0 no effect, 100 complete control)
Description: as §3, §4

[14] = 125 g ai/ha, scale 0 to 100, 0 no effect, 100 complete control
[15] = 8 g ai/ha, scale 0 to 100, 0 is no effect, 100 is complete control

SMILES: Fc1cnc(Oc2cccc(C(F)F)c2-n2cc(C(F)(F)F)cn2)nc1 [Compound 164]
- Poinsettia, Wild plant response rating ([1]; 31 g ai/ha): 0
- Poinsettia, Wild plant response rating ([1]; 62 g ai/ha): 5
- Plant response rating, Poinsettia, Wild [1, 14]: 30
- Field Bindweed plant response rating ([2]; 16 g ai/ha): 0
- Field Bindweed plant response rating ([2]; 31 g ai/ha): 0
- Field Bindweed plant response rating ([2]; 62 g ai/ha): 30
- Plant response rating, Field Bindweed [2, 14]: 50
- Plant response rating, Rice ([3]; 31 g ai/ha): 0
- Plant response rating, Rice ([3]; 62 g ai/ha): 0
- Plant response rating, Rice ([3]; 125 g ai/ha): 0
- Plant response rating, Rice ([3]; 250 g ai/ha): 0
- Plant response rating, Sedge, Umbrella ([4]; 31 g ai/ha): 0
- Plant response rating, Sedge, Umbrella ([4]; 62 g ai/ha): 20
- Plant response rating, Sedge, Umbrella ([4]; 125 g ai/ha): 75
- Plant response rating, Sedge, Umbrella ([4]; 250 g ai/ha): 95
- Morningglory plant response rating ([5]; 31 g ai/ha): 65
- Morningglory plant response rating ([5]; 62 g ai/ha): 35
- Plant response rating, Morningglory [5, 14]: 98
- Pigweed, Palmer plant response rating ([6]; 31 g ai/ha): 0
- Pigweed, Palmer plant response rating ([6]; 62 g ai/ha): 75
- Plant response rating, Pigweed, Palmer [6, 14]: 80
- Arrowleaf Sida plant response rating ([7]; 16 g ai/ha): 40
- Arrowleaf Sida plant response rating ([7]; 31 g ai/ha): 100
- Arrowleaf Sida plant response rating ([7]; 62 g ai/ha): 100
- Plant response rating, Arrowleaf Sida [7, 14]: 100
- Beggarticks plant response rating ([8]; 16 g ai/ha): 0
- Beggarticks plant response rating ([8]; 31 g ai/ha): 0
- Beggarticks plant response rating ([8]; 62 g ai/ha): 20
- Plant response rating, Beggarticks [8, 14]: 20
- Crabgrass, Brazil plant response rating ([9]; 16 g ai/ha): 0
- Crabgrass, Brazil plant response rating ([9]; 31 g ai/ha): 20
- Crabgrass, Brazil plant response rating ([9]; 62 g ai/ha): 75
- Plant response rating, Crabgrass, Brazil [9, 14]: 100
- Nutsedge, Yellow plant response rating ([10]; 31 g ai/ha): 0
- Nutsedge, Yellow plant response rating ([10]; 62 g ai/ha): 0
- Plant response rating, Nutsedge, Yellow [10, 14]: 20
- Corn plant response rating ([11]; 16 g ai/ha): 0
- Corn plant response rating ([11]; 31 g ai/ha): 0
- Corn plant response rating ([11]; 62 g ai/ha): 0
- Plant response rating, Corn [11, 14]: 0
- Lambsquarters plant response rating ([12]; 31 g ai/ha): 75
- Lambsquarters plant response rating ([12]; 62 g ai/ha): 98
- Plant response rating, Lambsquarters [12, 14]: 100
- Dayflower, VA plant response rating ([13]; 16 g ai/ha): 0
- Dayflower, VA plant response rating ([13]; 31 g ai/ha): 20
- Dayflower, VA plant response rating ([13]; 62 g ai/ha): 65
- Plant response rating, Dayflower, VA [13, 14]: 90

SMILES: NC(=S)c1cccc(Oc2ncc(Cl)cn2)c1-n1cc(Cl)cn1 [Compound 292]
- Plant response rating, Poinsettia, Wild [1, 15]: 0
- Poinsettia, Wild plant response rating ([1]; 31 g ai/ha): 5
- Poinsettia, Wild plant response rating ([1]; 62 g ai/ha): 35
- Plant response rating, Poinsettia, Wild [1, 14]: 60
- Plant response rating, Field Bindweed [2, 15]: 0
- Field Bindweed plant response rating ([2]; 16 g ai/ha): 0
- Field Bindweed plant response rating ([2]; 31 g ai/ha): 5
- Field Bindweed plant response rating ([2]; 62 g ai/ha): 30
- Plant response rating, Field Bindweed [2, 14]: 65
- Plant response rating, Morningglory [5, 15]: 0
- Morningglory plant response rating ([5]; 31 g ai/ha): 0
- Morningglory plant response rating ([5]; 62 g ai/ha): 15
- Plant response rating, Morningglory [5, 14]: 50
- Plant response rating, Pigweed, Palmer [6, 15]: 0
- Pigweed, Palmer plant response rating ([6]; 31 g ai/ha): 35
- Pigweed, Palmer plant response rating ([6]; 62 g ai/ha): 100
- Plant response rating, Pigweed, Palmer [6, 14]: 100
- Plant response rating, Arrowleaf Sida [7, 15]: 0
- Arrowleaf Sida plant response rating ([7]; 16 g ai/ha): 0
- Arrowleaf Sida plant response rating ([7]; 31 g ai/ha): 5
- Arrowleaf Sida plant response rating ([7]; 62 g ai/ha): 5
- Plant response rating, Arrowleaf Sida [7, 14]: 80
- Plant response rating, Beggarticks [8, 15]: 0
- Beggarticks plant response rating ([8]; 16 g ai/ha): 0
- Beggarticks plant response rating ([8]; 31 g ai/ha): 15
- Beggarticks plant response rating ([8]; 62 g ai/ha): 15
- Plant response rating, Beggarticks [8, 14]: 35
- Plant response rating, Crabgrass, Brazil [9, 15]: 0
- Crabgrass, Brazil plant response rating ([9]; 16 g ai/ha): 10
- Crabgrass, Brazil plant response rating ([9]; 31 g ai/ha): 40
- Crabgrass, Brazil plant response rating ([9]; 62 g ai/ha): 100
- Plant response rating, Crabgrass, Brazil [9, 14]: 100
- Plant response rating, Nutsedge, Yellow [10, 15]: 0
- Nutsedge, Yellow plant response rating ([10]; 31 g ai/ha): 0
- Nutsedge, Yellow plant response rating ([10]; 62 g ai/ha): 15
- Plant response rating, Nutsedge, Yellow [10, 14]: 35
- Plant response rating, Corn [11, 15]: 0
- Corn plant response rating ([11]; 16 g ai/ha): 0
- Corn plant response rating ([11]; 31 g ai/ha): 0
- Corn plant response rating ([11]; 62 g ai/ha): 0
- Plant response rating, Corn [11, 14]: 0
- Plant response rating, Lambsquarters [12, 15]: 0
- Lambsquarters plant response rating ([12]; 31 g ai/ha): 0
- Lambsquarters plant response rating ([12]; 62 g ai/ha): 25
- Plant response rating, Lambsquarters [12, 14]: 100
- Plant response rating, Dayflower, VA [13, 15]: 20
- Dayflower, VA plant response rating ([13]; 16 g ai/ha): 20
- Dayflower, VA plant response rating ([13]; 31 g ai/ha): 20
- Dayflower, VA plant response rating ([13]; 62 g ai/ha): 35
- Plant response rating, Dayflower, VA [13, 14]: 85
